Data reported in PubChem BioAssay AID1508612.

Assay: passive permeability, PAMPA, ADME assay (AID 1508612)
Settings: pH 7.4, 30.0 min, 50.0 µM

| Compound | Papp [×10⁻⁶ cm/s] |
| --- | --- |
| Cc1cnc(-c2ccccc2C(F)F)nc1NCc1ccc(-c2cccnc2)cc1 | > 1000 |
| O=C1CCCC2=C1C(C1CCCCC1Cl)N=C(NC1NC3CCCCC3S1)N2 (stereo not given) | 161 |
| NC(=O)COc1cccc(C2CC(=O)Nc3nc(N4CCCCC4)sc32)c1 (stereo not given) | 15.8 |
| CCNc1oc(-c2cccc3ccccc23)nc1C#N | 728 |
| Cc1cc(-c2nnc3n2CCCCC3)c(C)n1-c1ccc(F)cc1 | 314 |
| Cc1ccc(S(=O)(=O)Nc2cnccc2C(=O)Nc2nc(-c3ccc4c(c3)CCCC4)cs2)cc1 | 45.2 |
| Cn1nnnc1Sc1ncnc2scc(-c3ccccc3F)c12 | 338 |
| COCCOc1cnc2ccn([C@H](C)c3nnc4c(F)cc(-c5cnn(C)c5)cn34)c(=O)c2c1 | 15.1 |
| NC(=O)C1CCN(c2nc(-c3ccc4c(c3)CCO4)cs2)CC1 | > 1000 |
| Cc1cc(C)nc(NC(=S)N2CCN(c3ccc(F)cc3F)CC2)c1 | > 1000 |
| Cc1ccc(Nc2nc(-c3ccncc3)nc3ccccc23)cc1F | 15.5 |
| CC(=O)c1c(C)[nH]c(C(=O)Nc2cccc(S(=O)(=O)Nc3cccc(C#N)c3)c2)c1C | 68.9 |
| CNC(=O)c1ccccc1Nc1nc(Nc2ccc(N3CCOCC3)cc2OC)ncc1Cl | > 1000 |
| Cc1ccc(-n2nc3c(=O)n(CCCC(=O)NCc4ccc(F)cc4)nc(C)c3c2C)cc1 | 842 |
| CC1CCc2ccc(F)cc2N1S(=O)(=O)c1cccs1 (stereo not given) | 795 |
| CC(=O)c1c(C)c(C(=O)Nc2cccc([S+](=O)([O-])N(C)C)c2)n(C)c1C | 295 |
| O=C(Nc1ccc(S(=O)(=O)Nc2nccs2)cc1)c1cc(-c2ccccc2)nc2ccccc12 | 6.3 |
| NC(=O)C1CCN(c2ncc(-c3ccc4c(c3)OC(F)(F)O4)s2)CC1 | 438 |
| O=C(NCCCNc1nc(Nc2cccc(CN3CCOCC3)c2)ncc1C1CC1)C1CCC1 | 905 |
| COc1ccccc1NS(=O)(=O)c1cccc(NC(=O)c2[nH]c(C)c(C(C)=O)c2C)c1 | 197 |
| CCCN1C(CC(C)C)=NS(=O)(=O)c2cc(NC(=O)c3cccs3)ccc21 | 762 |
| COc1ccc(CN2CCc3c(c(=O)n4ncc(C(=O)N5CCN(c6ccccc6OC)CC5)c4n3C)C2)cc1 | 445 |
| Cc1ccc(-c2cc(C(=O)Nc3cccc(S(=O)(=O)Nc4nccs4)c3)c3ccccc3n2)cc1C | 22.3 |
| Cc1ccc(S(=O)(=O)Nc2ccccc2C(=O)Nc2ccc(-c3ccccc3)nn2)cc1 | > 1000 |
| NC(=O)C1CCN(c2nc(-c3cccc4ccccc34)cs2)CC1 | 641 |

| Compound | Papp [×10⁻⁶ cm/s] |
| --- | --- |
| Fc1cccc(CN2CCNc3cc(Nc4ccccc4)ncc3C2)c1 | < 1 |
| Fc1cnc(-c2ccccc2C(F)F)nc1NCC1CCN(c2cnccn2)C1 (stereo not given) | > 1000 |
| COc1ccc(NC2CCCN(C(=O)CCc3ccccc3F)C2)cc1 (stereo not given) | 923 |
| Cc1ccc(-c2csc(NC(=O)c3ccccc3NS(=O)(=O)c3ccc(C)cc3)n2)cc1 | 35.6 |
| Cc1ccc(C(=O)Nc2ccc3oc(-c4cccnc4)nc3c2)cc1[N+](=O)[O-] | 82.5 |
| O=C(CCc1ccccc1)NC(c1cccs1)c1cc(Cl)c2cccnc2c1O (stereo not given) | 20.9 |
| CN[C@@H](C)C(=O)N[C@@H]1C(=O)N(Cc2c(C)ccc3ccccc23)c2ccc(C#N)cc2N(C(C)=O)[C@H]1C | 551 |
| N#Cc1cccc(-c2nccc(-n3ccnc3)n2)c1 | 492 |
| CCN(CCCO)CCCOc1ccc2c(Nc3cc(CC(=O)Nc4cccc(F)c4)[nH]n3)ncnc2c1 | 2.5 |
| COCCNCc1ccc(-c2cc3nccc(Oc4ccc(NC(=S)NC(=O)Cc5ccc(F)cc5)cc4F)c3s2)nc1 | 361 |
| COc1cccc(CNc2ccc(S(=O)(=O)Nc3ccc(N4CCNCC4)nc3)cc2)c1O | 10.7 |
| Cc1ccc(C(N)=O)cc1Nc1nccc(-c2cn(C(C)C)c3cnccc23)n1 | 877 |
| CC1CCN(S(=O)(=O)c2ccc3c(ccc(=O)n3CC(=O)NCc3ccc(Cl)cc3)c2)CC1 | 799 |
| Cc1noc(C)c1C(=O)N1CCC2(CC1)CCN(C(c1ccccc1)c1ccccc1)CC2 | > 1000 |
| COc1cccc(CNC(=O)CCCn2nc(C)c3c(C)n(-c4ccc(C)cc4)nc3c2=O)c1OC | 619 |
| Cc1ccc(S(=O)(=O)Nc2ccc(C(=O)Nc3nc(-c4ccc(Cl)cc4)cs3)cc2)cc1 | 11 |
| Cc1cnc(-c2ccccc2C(C)C)nc1NCC1CN(c2cccnc2)C1 | > 1000 |
| CCCc1cc(=O)oc2c3c(c4c(c12)OC(C)(C)C=C4)OC(C)C(C)C3O (stereo not given) | > 1000 |
| Cc1onc(-c2ccc(F)cc2)c1COc1ccc(C(=O)N2CCS(=O)(=O)CC2)cn1 | 258 |
| Cc1c(CN(C)c2cc(C3CC(O)C3)nc(N)n2)[nH]c2ccccc12 (stereo not given) | < 1 |
| NC(=O)C1CCN(c2nc(-c3ccc(N4CCCCC4)nc3)cs2)CC1 | 23.9 |
| CCOC(=O)c1cnc2ccc(-c3cncc(NS(=O)(=O)c4ccccc4)c3)cn12 | 705 |
| O=C(Nc1nc(-c2ccccc2)cs1)c1ccncc1NS(=O)(=O)c1ccc(F)cc1Cl | > 1000 |
| O=c1[nH]c(N2CCOCC2)nc2c1CCN(Cc1cc(Cl)ccc1F)CC2 | > 1000 |
| O=C(O)c1ccnc2cc(C(OCC3CCC(F)(F)CC3)c3ccccc3Cl)[nH]c12 (stereo not given) | 75.6 |

| Compound | Papp [×10⁻⁶ cm/s] |
| --- | --- |
| CCOC(=O)c1ccc(N2C(=O)c3n[nH]c(-c4cccs4)c3C2c2ccc(OCC)cc2)cc1 (stereo not given) | 739 |
| COC(=O)C1=COC(C)C2CN3CCc4c([nH]c5cc(OC)c(OC)cc45)C3CC12 (stereo not given) | 366 |
| Fc1cnc(-c2ccccc2C(F)F)nc1NCC1CCN(c2cnccn2)CC1 | > 1000 |
| O=c1c2ccccc2nc2n1CCC2 | 44.2 |
| COc1ccc(-c2nc3ncccc3[nH]2)cc1 | 139 |
| Cc1cccc(N2CCN(c3nc4ccccc4c4nnc(C)n34)CC2)c1C | 887 |
| COC(=N)c1nc2ccc3ncnc(Nc4ccc(F)cc4Br)c3c2s1 | 28 |
| CC(C)NC(=O)c1nc(-c2ccc(Cl)nc2)c2cnccn12 | 723 |
| NC(=O)C1CCN(c2nc(-c3cccc(N)c3)cs2)CC1 | 86.8 |
| CC(=O)c1c(C)[nH]c(C(=O)Nc2cccc(S(=O)(=O)N3CCOCC3)c2)c1C | 475 |
| CCC(CC)c1cc([C@H]2CN3CC[C@H]2C[C@@H]3CNC(=O)Cc2cccs2)nc(-c2ccncc2)n1 | 448 |
| Cn1ccc2c(C(=O)NCCC(N)=O)nc(-c3cccc(CO)c3)cc21 | 29.9 |
| CN(C(=O)CSc1nc2c(c(=O)[nH]1)CCCC2)c1ccccc1 | 143 |
| Cc1ccc(-c2csc(NC(=O)c3ccncc3NS(=O)(=O)c3ccc(C)cc3)n2)cc1 | 530 |
| NC(=O)C1CCN(c2nc(-c3ccc4occc(=O)c4c3)cs2)CC1 | 106 |
| Fc1ccccc1Nc1nc(-c2ccncc2)nc2ccccc12 | 839 |
| CCc1cccc(NS(=O)(=O)c2ccc3c(c2)CC(C)N3C(=O)C2CC2)c1 (stereo not given) | > 1000 |
| NC(=O)C1CCN(c2nc(-c3ccc(F)cc3)cs2)CC1 | 198 |
| Cc1nnc(N2C(=O)c3oc4ccccc4c(=O)c3C2c2ccc(F)cc2)s1 (stereo not given) | 314 |
| O=C(Nc1ccccc1)C1CCN(c2ncc(-c3ccc4c(c3)OCCCO4)s2)CC1 | 917 |
| Cc1ccnc(NC(=S)N2CCCC(Nc3cccc(C(F)(F)F)c3)C2)c1 (stereo not given) | > 1000 |
| Cc1ccc(-n2nc3c(=O)n(CCCC(=O)NC(C)c4ccccc4)nc(C)c3c2C)cc1 (stereo not given) | 695 |
| Cc1ccc(S(=O)(=O)Nc2ccccc2C(=O)Nc2ccc(-c3ccccc3)nc2)cc1 | 54.3 |
| Cc1cccc(CS(=O)(=O)c2ncc(Cl)c(C(=O)Nc3nc4ccc(F)cc4s3)n2)c1 | 261 |
| COc1cccc(CNc2ccc(S(=O)(=O)Nc3nc(C)c(C)s3)cc2)c1O | 25.8 |
